Data as given in PMC11149885 (PLOS ONE, 2024).
“And” between values parts separate entries of the source, which are not always exact repeats. Equal values may be shown once.

What was measured:
[1] = target: T1, VEGFR2 (Homo sapiens, UniProt P35968); test: HotSpot kinase screen; format: biochemical; conditions: 10μM ATP
T1 construct: purchased Millipore Corporation (Dundee, Scotland) or Reaction Biology Corporation (contract assay)

[2] = target: T2, VEGFR1 (Homo sapiens, UniProt P17948); test: Ten-dose IC50 measurement; conditions: 10μM ATP
[3] = tested on: VEGF-A–induced sprouting of HUVECs; test: HUVEC spheroid sprouting assay; format: cell-based, human; conditions: for cumulative sprout length per spheroid (CSL), mean: 25 ng/mL VEGF-165, 24 hours
Description: The three TKI compounds were tested by Reaction Biology Europe (Freiburg, Germany) in the spheroid-based cellular angiogenesis assay to determine their effect on VEGF-A–induced sprouting of HUVECs. Primary HUVECs from pooled donors at passage 3 to 4 (PromoCell, Heidelberg, Germany) were grown in endothelial cell growth and basal medium (ECGM/ECBM, PromoCell). Test compounds were prepared as 100-fold concentrated stock solutions in DMSO and pre-diluted in basal medium. HUVECs were stimulated using 25 ng/mL VEGF-165 (Reaction Biology Europe, Freiburg, Germany) pre-diluted in basal medium.
Spheroids were prepared as described by pipetting 400 HUVECs in a hanging drop on plastic dishes to allow overnight spheroid aggregation. Fifty HUVEC spheroids were seeded in 0.9 mL of a collagen gel and pipetted into individual wells of a 24-well plate to allow polymerization. Test compounds and VEGF-165 were added after 30 minutes by pipetting 100 μL of a ten-fold concentrated solution onto the polymerized gel. Plates were incubated at 37°C for 24 hours, and cells were fixed by adding 4% paraformaldehyde (Roth, Karlsruhe, Germany). Sprouting intensity of HUVEC spheroids treated with the test samples was quantitated using an image analysis system to determine the cumulative sprout length (CSL) per spheroid. Images of single spheroids were captured using an inverted microscope and the digital imaging software NIS-Elements BR 3.0 (Nikon). Spheroid pictures were uploaded to Wimasis (www.wimasis.com) for image analysis. The CSL of each spheroid was determined using the imaging analysis tool WimSprout. The mean CSL of ten randomly selected spheroids was analyzed as an individual data point.

[4] = target: T2, VEGFR1
[5] = target: T3, TIE2 (Homo sapiens, UniProt Q02763)
[6] = tested on: VEGF-induced angiogenesis on the CAM; test: Gelatin sponge chick chorioallantoic membrane (CAM) assay
[7] = target: T4, VEGFR3 (Homo sapiens, UniProt P35916); test: Ten-dose IC50 measurement; format: biochemical; conditions: 10μM ATP
T4 construct: purchased Millipore Corporation (Dundee, Scotland) or Reaction Biology Corporation (contract assay)

[8] = target: T3, TIE2; test: HotSpot kinase screen; format: biochemical; design: purchased Reaction Biology Corporation (contract assay); conditions: 10μM ATP
[9] = target: T4, VEGFR3; test: HotSpot kinase screen; format: biochemical; conditions: 10μM ATP
Description: (§1) Measurement of kinase activity was performed by Reaction Biology Corporation (Reaction Biology Corporation, Malvern, PA), using the HotSpot™ assay. The screen focused on RTKs reported in the literature to play a major role in the regulation of angiogenesis (VEGFR1, VEGFR2, and VEGFR3; fibroblast growth factor receptor [FGFR] 1, 2, and 3; and platelet-derived growth factor receptor beta [PDGFRβ]) as well as an RTK essential for maintaining blood vessel stability (TIE2). For the profiling, specific kinase/substrate pairs and required cofactors were prepared in a reaction buffer (20mM Hepes [pH 7.5], 10mM MgCl2, 1mM EGTA, 0.02% Brij35, 0.02 mg/mL BSA, 0.1mM Na3VO4, 2mM DTT, 1% dimethyl sulfoxide [DMSO]). TKI compounds were diluted to 10μM and 1μM concentrations for the screens and after addition to the reaction buffer incubated for 20 minutes, followed by the addition of a mixture of ATP (Sigma, St. Louis, MO) and ^33P-ATP (Perkin Elmer, Waltham, MA) to a final ATP concentration of 10μM. Reactions were carried out at room temperature for 2 hours, followed by spotting of the reactions onto P81 ion exchange filter paper (Whatman Inc., Piscataway, NJ). Unbound phosphate was removed by extensive washing of the filters. […] Kinome TREEspot images representing levels of inhibition were prepared using Kinome Mapper (https://www.reactionbiology.com/resources/tools/kinase-mapper).

[10] = target: T5, FGFR2 (Homo sapiens, UniProt P21802); test: HotSpot kinase screen; format: biochemical; conditions: 10μM ATP
T5 construct: purchased Reaction Biology Corporation (contract assay)
Description: as §1

[11] = target: T3, TIE2; test: Ten-dose IC50 measurement; conditions: 10μM ATP
[12] = target: T2, VEGFR1; test: HotSpot kinase screen; format: biochemical; design: purchased Millipore Corporation (Dundee, Scotland) or Reaction Biology Corporation (contract assay); conditions: 10μM ATP
Description: as §1

[13] = target: T1, VEGFR2; test: Ten-dose IC50 measurement; format: biochemical; conditions: 10μM ATP

T2 sequence (P17948 27-1338): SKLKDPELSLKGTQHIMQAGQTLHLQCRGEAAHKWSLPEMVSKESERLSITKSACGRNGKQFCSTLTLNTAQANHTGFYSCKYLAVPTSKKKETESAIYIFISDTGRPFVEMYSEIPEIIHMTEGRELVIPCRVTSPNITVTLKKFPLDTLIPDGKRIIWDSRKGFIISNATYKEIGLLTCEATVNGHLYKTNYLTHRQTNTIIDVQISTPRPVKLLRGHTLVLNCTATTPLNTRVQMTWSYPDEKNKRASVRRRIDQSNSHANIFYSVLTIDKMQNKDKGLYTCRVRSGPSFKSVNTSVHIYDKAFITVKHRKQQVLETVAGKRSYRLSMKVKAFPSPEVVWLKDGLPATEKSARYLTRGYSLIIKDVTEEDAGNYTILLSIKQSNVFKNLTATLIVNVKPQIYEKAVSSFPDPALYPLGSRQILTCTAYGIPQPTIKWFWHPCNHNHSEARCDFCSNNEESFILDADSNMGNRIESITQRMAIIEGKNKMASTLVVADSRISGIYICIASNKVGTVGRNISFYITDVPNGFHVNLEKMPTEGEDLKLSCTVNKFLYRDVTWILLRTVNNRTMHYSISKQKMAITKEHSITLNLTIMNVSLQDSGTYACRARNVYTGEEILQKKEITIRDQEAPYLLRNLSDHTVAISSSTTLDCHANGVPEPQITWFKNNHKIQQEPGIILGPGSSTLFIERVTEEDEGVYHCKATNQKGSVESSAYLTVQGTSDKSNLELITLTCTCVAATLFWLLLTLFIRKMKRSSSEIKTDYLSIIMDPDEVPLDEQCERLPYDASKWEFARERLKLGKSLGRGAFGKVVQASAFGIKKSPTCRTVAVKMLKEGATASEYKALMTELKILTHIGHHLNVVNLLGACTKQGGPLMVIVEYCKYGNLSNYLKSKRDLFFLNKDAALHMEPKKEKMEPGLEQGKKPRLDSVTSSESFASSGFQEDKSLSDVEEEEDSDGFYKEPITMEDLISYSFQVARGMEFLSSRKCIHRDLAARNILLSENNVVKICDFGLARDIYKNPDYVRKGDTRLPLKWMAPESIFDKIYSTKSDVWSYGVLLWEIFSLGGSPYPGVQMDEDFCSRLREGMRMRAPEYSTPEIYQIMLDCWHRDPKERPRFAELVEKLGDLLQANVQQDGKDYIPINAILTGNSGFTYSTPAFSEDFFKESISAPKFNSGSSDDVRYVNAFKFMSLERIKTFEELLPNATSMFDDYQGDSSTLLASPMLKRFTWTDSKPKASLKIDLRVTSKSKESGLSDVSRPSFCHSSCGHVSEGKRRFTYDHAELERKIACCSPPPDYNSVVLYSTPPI
T3 sequence (Q02763 23-1124): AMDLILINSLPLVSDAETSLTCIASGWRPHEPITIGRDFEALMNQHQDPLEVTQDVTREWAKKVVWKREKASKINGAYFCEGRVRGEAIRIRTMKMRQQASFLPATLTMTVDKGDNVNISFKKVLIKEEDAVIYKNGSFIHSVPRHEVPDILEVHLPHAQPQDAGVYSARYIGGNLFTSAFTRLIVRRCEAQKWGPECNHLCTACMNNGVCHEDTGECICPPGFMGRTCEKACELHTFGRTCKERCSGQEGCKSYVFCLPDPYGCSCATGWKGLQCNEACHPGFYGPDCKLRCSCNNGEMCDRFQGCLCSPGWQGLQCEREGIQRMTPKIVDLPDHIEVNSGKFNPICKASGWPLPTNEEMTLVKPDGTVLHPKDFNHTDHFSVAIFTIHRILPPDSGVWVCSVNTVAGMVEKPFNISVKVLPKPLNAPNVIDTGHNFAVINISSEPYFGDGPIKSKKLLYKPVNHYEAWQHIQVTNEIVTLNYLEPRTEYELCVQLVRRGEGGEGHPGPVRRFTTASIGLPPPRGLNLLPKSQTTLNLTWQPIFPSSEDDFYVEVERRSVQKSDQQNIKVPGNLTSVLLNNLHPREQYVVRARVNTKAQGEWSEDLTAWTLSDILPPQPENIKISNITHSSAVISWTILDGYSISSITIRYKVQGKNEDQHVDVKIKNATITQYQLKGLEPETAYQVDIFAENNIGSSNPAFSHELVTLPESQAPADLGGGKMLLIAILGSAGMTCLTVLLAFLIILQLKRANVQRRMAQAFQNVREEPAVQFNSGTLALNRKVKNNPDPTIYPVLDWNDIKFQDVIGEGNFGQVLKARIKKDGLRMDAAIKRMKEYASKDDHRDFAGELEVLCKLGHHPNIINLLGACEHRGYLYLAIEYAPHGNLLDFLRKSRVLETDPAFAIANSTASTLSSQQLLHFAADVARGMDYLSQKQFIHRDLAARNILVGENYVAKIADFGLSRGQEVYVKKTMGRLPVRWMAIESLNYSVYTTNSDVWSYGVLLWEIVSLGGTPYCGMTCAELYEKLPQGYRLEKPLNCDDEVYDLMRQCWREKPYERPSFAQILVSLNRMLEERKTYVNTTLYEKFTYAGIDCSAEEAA
T1 sequence (P35968 20-1356): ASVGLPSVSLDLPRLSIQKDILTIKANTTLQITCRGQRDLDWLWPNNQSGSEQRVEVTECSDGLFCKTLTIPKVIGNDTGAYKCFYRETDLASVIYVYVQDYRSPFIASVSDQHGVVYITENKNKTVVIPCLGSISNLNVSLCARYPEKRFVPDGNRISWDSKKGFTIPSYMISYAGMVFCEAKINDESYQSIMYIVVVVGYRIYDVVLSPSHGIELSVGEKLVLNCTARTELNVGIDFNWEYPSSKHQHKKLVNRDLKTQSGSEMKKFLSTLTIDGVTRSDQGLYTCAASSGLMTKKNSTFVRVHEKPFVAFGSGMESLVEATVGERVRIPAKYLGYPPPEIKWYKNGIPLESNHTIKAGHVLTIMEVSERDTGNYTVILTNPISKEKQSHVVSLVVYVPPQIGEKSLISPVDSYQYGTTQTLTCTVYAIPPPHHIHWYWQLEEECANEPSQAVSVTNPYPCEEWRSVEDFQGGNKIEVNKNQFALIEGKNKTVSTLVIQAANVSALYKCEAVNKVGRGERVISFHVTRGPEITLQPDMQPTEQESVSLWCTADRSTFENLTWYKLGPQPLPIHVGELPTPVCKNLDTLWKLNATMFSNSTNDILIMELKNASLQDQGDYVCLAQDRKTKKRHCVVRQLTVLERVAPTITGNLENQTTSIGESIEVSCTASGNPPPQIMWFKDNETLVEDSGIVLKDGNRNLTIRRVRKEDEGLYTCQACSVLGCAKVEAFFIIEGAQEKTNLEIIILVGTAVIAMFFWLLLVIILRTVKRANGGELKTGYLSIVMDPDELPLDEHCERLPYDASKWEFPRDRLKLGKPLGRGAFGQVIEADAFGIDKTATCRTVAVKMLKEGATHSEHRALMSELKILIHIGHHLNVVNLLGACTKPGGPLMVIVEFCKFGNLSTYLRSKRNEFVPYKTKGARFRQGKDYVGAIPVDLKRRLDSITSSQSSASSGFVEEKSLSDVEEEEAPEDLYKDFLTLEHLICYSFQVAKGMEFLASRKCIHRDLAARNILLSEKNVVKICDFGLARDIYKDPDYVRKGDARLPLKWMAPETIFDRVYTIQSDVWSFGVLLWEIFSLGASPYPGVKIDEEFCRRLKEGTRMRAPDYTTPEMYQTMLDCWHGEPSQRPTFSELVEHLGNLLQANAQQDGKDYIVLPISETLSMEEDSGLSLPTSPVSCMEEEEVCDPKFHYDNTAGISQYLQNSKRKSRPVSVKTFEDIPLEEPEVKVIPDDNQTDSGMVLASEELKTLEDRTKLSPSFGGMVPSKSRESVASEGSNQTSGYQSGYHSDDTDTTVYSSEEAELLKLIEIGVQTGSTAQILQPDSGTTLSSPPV
T4 sequence (P35916 25-1363): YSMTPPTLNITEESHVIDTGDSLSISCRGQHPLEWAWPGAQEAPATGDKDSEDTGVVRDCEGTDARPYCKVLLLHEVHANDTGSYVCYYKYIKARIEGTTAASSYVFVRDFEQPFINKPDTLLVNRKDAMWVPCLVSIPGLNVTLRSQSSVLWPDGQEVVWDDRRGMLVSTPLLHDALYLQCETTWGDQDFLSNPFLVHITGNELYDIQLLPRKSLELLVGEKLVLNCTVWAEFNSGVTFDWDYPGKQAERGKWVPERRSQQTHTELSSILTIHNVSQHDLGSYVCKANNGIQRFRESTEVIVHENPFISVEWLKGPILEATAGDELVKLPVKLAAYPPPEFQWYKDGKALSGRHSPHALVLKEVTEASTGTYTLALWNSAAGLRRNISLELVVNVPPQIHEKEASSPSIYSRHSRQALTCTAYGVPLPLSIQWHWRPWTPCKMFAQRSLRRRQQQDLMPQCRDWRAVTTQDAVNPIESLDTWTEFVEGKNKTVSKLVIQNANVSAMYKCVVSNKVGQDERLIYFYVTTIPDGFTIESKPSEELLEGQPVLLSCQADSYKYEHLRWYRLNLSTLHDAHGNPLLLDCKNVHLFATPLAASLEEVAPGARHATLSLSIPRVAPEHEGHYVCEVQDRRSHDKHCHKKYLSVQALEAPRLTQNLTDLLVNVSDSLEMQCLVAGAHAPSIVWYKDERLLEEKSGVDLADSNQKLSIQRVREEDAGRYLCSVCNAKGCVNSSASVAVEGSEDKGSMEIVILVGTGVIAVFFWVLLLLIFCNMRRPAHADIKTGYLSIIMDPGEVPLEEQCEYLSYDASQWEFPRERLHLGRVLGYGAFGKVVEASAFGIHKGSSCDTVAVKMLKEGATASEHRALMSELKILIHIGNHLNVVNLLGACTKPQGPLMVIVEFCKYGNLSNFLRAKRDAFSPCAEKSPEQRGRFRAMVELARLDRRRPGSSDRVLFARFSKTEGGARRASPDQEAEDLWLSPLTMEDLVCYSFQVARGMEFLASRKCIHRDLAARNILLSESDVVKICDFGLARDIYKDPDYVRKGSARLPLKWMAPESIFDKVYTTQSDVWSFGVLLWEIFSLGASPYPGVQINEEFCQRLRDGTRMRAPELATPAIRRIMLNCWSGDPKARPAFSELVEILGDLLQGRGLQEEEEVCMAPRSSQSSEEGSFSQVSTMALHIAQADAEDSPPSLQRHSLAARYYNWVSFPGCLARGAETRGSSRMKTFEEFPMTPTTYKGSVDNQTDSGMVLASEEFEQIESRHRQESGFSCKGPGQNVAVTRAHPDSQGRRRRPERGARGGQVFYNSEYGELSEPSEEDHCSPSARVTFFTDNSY

**Q.** Which “Avg % Inhibition VEGFR2” value ([1]; 1uM TKI) does the source give for `CNC(=O)c1ccccc1Sc1ccc2c(/C=C/c3ccccn3)n[nH]c2c1` [Axitinib] here?
**A.** 100%

**Q.** And the “Avg % Inhibition VEGFR2” value ([1]; 10uM TKI)?
**A.** 90.96%

**Q.** And the “%Activity VEGFR1” value ([2]; 1.00E-05 M TKI)?
**A.** -0.87%

**Q.** And the “%Activity VEGFR1” value ([2]; 1.11E-06 M TKI)?
**A.** -0.31%

**Q.** And the “%Activity VEGFR1” value ([2]; 1.37E-08 M TKI)?
**A.** 18.99%

**Q.** And the “%Activity VEGFR1” value ([2]; 1.52E-09 M TKI)?
**A.** 42.18%

**Q.** And the “%Activity VEGFR1” value ([2]; 3.33E-06 M TKI)?
**A.** -0.89%

**Q.** And the “%Activity VEGFR1” value ([2]; 4.12E-08 M TKI)?
**A.** 9.96%

**Q.** And the “%Activity VEGFR1” value ([2]; 4.57E-09 M TKI)?
**A.** 22.02%

**Q.** And the “%Activity VEGFR1” value ([2]; 5.08E-10 M TKI)?
**A.** 59.50%

**Q.** And the “cumulative sprout length per spheroid (CSL), mean” value ([3]; 1.00E-05 M TKI)?
**A.** 259

**Q.** And the “cumulative sprout length per spheroid (CSL), mean” value ([3]; 1.00E-06 M TKI)?
**A.** 441

**Q.** And the “cumulative sprout length per spheroid (CSL), mean” value ([3]; 1.00E-07 M TKI)?
**A.** 459

**Q.** What about the “cumulative sprout length per spheroid (CSL), mean” value ([3]; 3.00E-06 M TKI) of the same compound?
**A.** 354

**Q.** What about the “cumulative sprout length per spheroid (CSL), mean” value ([3]; 3.00E-07 M TKI) of the same compound?
**A.** 373

**Q.** And the “cumulative sprout length per spheroid (CSL), mean” value ([3]; 3.00E-08 M TKI)?
**A.** 379

**Q.** What about the “vessel sprouting (representative spheroid images)” value ([3]; highest test concentration of 1×10^–5M) of the same compound?
**A.** zero vessel sprouting

**Q.** What about the activity [4] of the same compound?
**A.** 5.07%

**Q.** And the activity [5]?
**A.** 60.1%

**Q.** What about the “Angiogenesis - Vessel number, Mean” value ([6]; TKI at 200 x VEGFR2 IC50) of the same compound?
**A.** 11.1

**Q.** What about the “Angiogenesis - Vessel number, individual egg” value ([6]; TKI at 200 x VEGFR2 IC50, one value per egg) of the same compound?
**A.** 9.33 and 12.67 and 12 and 10.33

**Q.** And the “reduction of the number of blood vessels perfusing the sponges vs negative control” value ([6]; TKI at VEGFR2 IC50 dose)?
**A.** 24.6%

**Q.** What about the “Angiogenesis - Vessel thickness score, Mean” value ([6]; TKI at VEGFR2 IC50 dose, score 0-3) of the same compound?
**A.** 0.9

**Q.** And the “Angiogenesis - Vessel thickness score, individual egg” value ([6]; TKI at VEGFR2 IC50 dose, score 0-3, one value per egg)?
**A.** 0.33 and 1.33 and 0 and 1.67

**Q.** What about the “%Activity VEGFR3” value ([7]; 1.00E-05 M TKI) of the same compound?
**A.** 2.02%

**Q.** What about the “%Activity VEGFR3” value ([7]; 1.11E-06 M TKI) of the same compound?
**A.** 2.44%

**Q.** And the “%Activity VEGFR3” value ([7]; 1.37E-08 M TKI)?
**A.** 28.96%

**Q.** What about the “%Activity VEGFR3” value ([7]; 1.52E-09 M TKI) of the same compound?
**A.** 56.16%

**Q.** And the “%Activity VEGFR3” value ([7]; 3.33E-06 M TKI)?
**A.** 1.23%

**Q.** And the “%Activity VEGFR3” value ([7]; 3.70E-07 M TKI)?
**A.** 5.72%

**Q.** And the “%Activity VEGFR3” value ([7]; 4.57E-09 M TKI)?
**A.** 40.16%

**Q.** What about the “%Activity VEGFR3” value ([7]; 5.08E-10 M TKI) of the same compound?
**A.** 63.17%

**Q.** What about the “Avg % Inhibition TIE2” value ([8]; 1uM TKI) of the same compound?
**A.** 81% and 81.47%

**Q.** What about the “Avg % Inhibition TIE2” value ([8]; 10uM TKI) of the same compound?
**A.** 89% and 89.11%

**Q.** And the “Avg % Inhibition TIE2” value ([8]; 10uM TKI, listed as axitinib)?
**A.** up to 89%

**Q.** What about the “Avg % Inhibition VEGFR3” value ([9]; 1uM TKI) of the same compound?
**A.** 97.27%

**Q.** And the “Avg % Inhibition VEGFR3” value ([9]; 10uM TKI)?
**A.** 99.21%

**Q.** And the “Avg % Inhibition FGFR2” value ([10]; 1uM TKI)?
**A.** 93.95%

**Q.** And the “Avg % Inhibition FGFR2” value ([10]; 10uM TKI)?
**A.** 98.81%

**Q.** What about the “%Activity TIE2” value ([11]; 1.00E-05 M TKI) of the same compound?
**A.** 10.50%

**Q.** What about the “%Activity TIE2” value ([11]; 1.11E-06 M TKI) of the same compound?
**A.** 16.32%

**Q.** And the “%Activity TIE2” value ([11]; 1.37E-08 M TKI)?
**A.** 87.12%

**Q.** And the “%Activity TIE2” value ([11]; 1.52E-09 M TKI)?
**A.** 98.75%

**Q.** And the “%Activity TIE2” value ([11]; 3.33E-06 M TKI)?
**A.** 7.06%

**Q.** And the “%Activity TIE2” value ([11]; 3.70E-07 M TKI)?
**A.** 38.01%

**Q.** What about the “%Activity TIE2” value ([11]; 4.12E-08 M TKI) of the same compound?
**A.** 78.65%

**Q.** What about the “%Activity TIE2” value ([11]; 4.57E-09 M TKI) of the same compound?
**A.** 95.05%

**Q.** And the “%Activity TIE2” value ([11]; 5.08E-10 M TKI)?
**A.** 95.58%

**Q.** And the “Avg % Inhibition VEGFR1” value ([12]; 1uM TKI)?
**A.** 100%

**Q.** And the “Avg % Inhibition VEGFR1” value ([12]; 10uM TKI)?
**A.** 97.53%

**Q.** What about the “%Activity VEGFR2” value ([13]; 1.00E-05 M TKI) of the same compound?
**A.** 7.43%

**Q.** What about the “%Activity VEGFR2” value ([13]; 1.11E-06 M TKI) of the same compound?
**A.** 4.53%

**Q.** And the “%Activity VEGFR2” value ([13]; 1.23E-07 M TKI)?
**A.** 7.10%

**Q.** What about the “%Activity VEGFR2” value ([13]; 1.37E-08 M TKI) of the same compound?
**A.** 13.24%

**Q.** What about the “%Activity VEGFR2” value ([13]; 1.52E-09 M TKI) of the same compound?
**A.** 62.16%

**Q.** What about the “%Activity VEGFR2” value ([13]; 3.33E-06 M TKI) of the same compound?
**A.** 6.81%

**Q.** What about the “%Activity VEGFR2” value ([13]; 3.70E-07 M TKI) of the same compound?
**A.** 7.21%

**Q.** And the “%Activity VEGFR2” value ([13]; 4.12E-08 M TKI)?
**A.** 8.44%

**Q.** And the “%Activity VEGFR2” value ([13]; 4.57E-09 M TKI)?
**A.** 25.12%

**Q.** And the “%Activity VEGFR2” value ([13]; 5.08E-10 M TKI)?
**A.** 84.02%

**Q.** What about the “HillSlope VEGFR2” value ([13]; IC50 curve fit) of the same compound?
**A.** -1.18
